In patent US9834549B2, “3,3-disubstituted-(8-aza-bicyclo[3.2.1]OCT-8-yl)-[5-(1H-pyrazol-4-yl)-thiophen-3-yl]-methanones as inhibitors of 11 (β)-HSD1” (The University Of Edinburgh, priority 2010, dated 2017):
Where two headings read alike, the source gives them in different places.

Assays:
human 11β-HSD2 = target: T1, human 11β-HSD2 (Homo sapiens, UniProt P80365); experiment: Cellular in vitro 11β-HSD2 enzyme inhibition assay (CHO cells); assay type: cell-based; conditions: CHO cells transfected with human 11β-HSD2
T1 construct: CHO cells stably transfected with the full-length gene coding for human 11β-HSD2 were used; expressed in transfected cells; host or cells: CHO (stably transfected)
T1 sequence (P80365 1-405): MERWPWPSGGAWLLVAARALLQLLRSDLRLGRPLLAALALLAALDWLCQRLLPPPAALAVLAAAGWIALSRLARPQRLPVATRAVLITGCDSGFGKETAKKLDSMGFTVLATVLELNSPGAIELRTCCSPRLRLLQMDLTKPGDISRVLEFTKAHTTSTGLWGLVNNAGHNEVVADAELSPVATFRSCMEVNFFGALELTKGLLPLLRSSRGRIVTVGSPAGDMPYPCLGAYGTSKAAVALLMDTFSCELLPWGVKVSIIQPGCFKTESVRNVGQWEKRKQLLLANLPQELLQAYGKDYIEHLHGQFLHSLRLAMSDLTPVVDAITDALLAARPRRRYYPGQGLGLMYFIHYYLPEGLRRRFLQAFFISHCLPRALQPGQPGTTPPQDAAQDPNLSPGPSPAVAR
Description: For measurement of inhibition of 11β-HSD2, CHO cells stably transfected with the full-length gene coding for human 11β-HSD2 were used. Assays were carried out in 96-well microplates containing 1×10^5 cells/well. Controls and compounds were plated as above, so that the final DMSO concentration in each well was 1%. To initiate the assay, 90 μL of a solution of HAMS F-12 medium containing 1% glutamine, 1% penicillin and streptomycin, and 22 nM tritiated cortisol was added to each well of the assay plate. The plate was then incubated in 5% CO2, 95% O2 at 37° C. for 16 hours.
The assay solutions were transferred to glass tubes and […] added to each tube. Each tube was vortexed thoroughly and the upper layer containing the tritiated steroid transferred to a fresh glass tube. The solvent was evaporated by placing the tubes in a heating block at 65° C. under a stream of nitrogen gas. 20 μL ethanol was added to each of the dried samples and vortexed briefly. Each sample was applied to a silica TLC plate and the plate dried. The plate was placed vertically in a glass tank containing 92% chloroform: 8% ethanol and the solvent allowed to rise up the plate. The plate was dried, placed in an imaging cassette, and overlayed with a tritium imaging plate for 1-2 days. The amount of enzyme inhibition in each sample was determined by measuring the intensity of the substrate and product spots using a phospho-imager. IC50 values for inhibitors were determined as described above for 11β-HSD1.

human 11β-HSD1 = target: T2, human 11β-HSD1 (Homo sapiens, UniProt P28845); experiment: Cellular in vitro 11β-HSD1 enzyme inhibition assay (SPA, HEK293/11β-HSD1 cells); assay type: cell-based; conditions: read-out: IC50 for 11β-HSD1 (HEK293)
T2 construct: stably transfected with a construct containing the full-length gene coding for the human 11β-HSD1 enzyme; expressed in transfected cells; host or cells: HEK293 (stably transfected, HEK293/11β-HSD1)
T2 sequence (P28845 whole entry): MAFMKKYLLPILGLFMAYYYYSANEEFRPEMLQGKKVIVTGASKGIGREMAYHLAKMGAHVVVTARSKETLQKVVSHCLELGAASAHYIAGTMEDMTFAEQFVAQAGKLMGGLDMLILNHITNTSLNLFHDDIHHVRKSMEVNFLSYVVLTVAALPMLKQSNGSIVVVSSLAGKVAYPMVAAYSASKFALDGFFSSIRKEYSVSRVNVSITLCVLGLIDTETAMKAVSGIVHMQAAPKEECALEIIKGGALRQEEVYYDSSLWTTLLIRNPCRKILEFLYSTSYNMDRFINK
Description: Compounds were assessed by a Scintillation Proximity Assay (SPA) performed according to the following protocol:
HEK293 cells were stably transfected with a construct containing the full-length gene coding for the human 11β-HSD1 enzyme to create HEK293/11β-HSD1 cells. Cells were routinely cultured in DMEM containing 10% calf foetal serum, 1% glutamine, and 1% penicillin and streptomycin. Prior to assay, cells were plated at 2×10^4 cells/well in 96-well poly-D-Lys coated flat-bottomed microplates and incubated in 5% CO2, 95% O2 at 37° C. for 24 hours. The media in each well was removed immediately before assay.
Compounds to be tested were dissolved in DMSO at 10 mM and serially diluted into water containing 10% DMSO. Diluted compounds at a volume of 10 μL were added to wells of a 96-well V-bottomed microplate. A solution of DMEM, 1% glutamine, 1% penicillin and streptomycin, and 22 nM tritiated cortisone was prepared and 90 μL added to each well of the assay plate. This solution (100 μL/well) was transferred to the plate containing the cells. The plate was then incubated in 5% CO2, 95% O2 at 37° C. for 2 hours.
Following this incubation, 50 μL of the assay solution was transferred to each well of a 96-well scintillation microplate. A mixture consisting of anti-mouse YSi SPA beads, pre-mixed with anti-cortisol antibody in assay buffer (50 mM Tris.HCl, pH 7.0; 300 mM NaCl; 1 mM EDTA, 5% glycerol) was prepared and 50 μL added to each well of the scintillation microplate. An adhesive strip was applied to the microplate and the plate gently shaken for at least 2 hours at room temperature, and then spun briefly on a low speed centrifuge. The plate was read on a scintillation counter suitable for 96-well microplates. For the calculation of percentage inhibition, a series of wells were added to the plate that represented the assay maximum and the assay minimum: one set that contained substrate without cells (minimum) and another set that contained substrate and cells without any compound (maximum).
The calculation of median inhibitory concentration (IC50) values for the compounds was performed using GraphPad Prism® software. Dose-response curves for each compound were plotted as fractional inhibition and data fitted to the four parameter logistic equation.

[1] = HEK293 cells transfected with human 11β-HSD1, first value in cell

SMILES | IC50 (human 11β-HSD1; HEK293, potency groups) | other results
Cc1cccnc1C1(F)CC2CCC(C1)N2C(=O)c1csc(-c2cn[nH]c2)c1 (single isomer, unassigned) [XX-16, [3-Fluoro-3-(3-methyl-pyridin-2-yl)-8-aza-bicyclo[3.2.1]oct-8-yl]-[5-(1H-pyrazol-4-yl)-thiophen-3-yl]-methanone] | ≤ 0.1 µM | IC50 (human 11β-HSD2): > 10000 nM; IC50 (human 11β-HSD1; [1]): 0.009 µM
O=C(c1csc(-c2cn[nH]c2)c1)N1C2CCC1CC(F)(c1nccs1)C2 (single isomer, unassigned) [XX-34, (3-Fluoro-3-thiazol-2-yl-8-aza-bicyclo[3.2.1]oct-8-yl)-[5-(1H-pyrazol-4-yl)-thiophen-3-yl]-methanone] | 0.1 to 0.5 µM | –
O=C(c1csc(-c2cn[nH]c2)c1)N1C2CCC1CC(O)(c1ncccc1F)C2 (stereo not shown) [XX-02] | – | IC50 (human 11β-HSD1; HEK293, potency groups, μM): 0.5 to 10 µM
O=C(c1csc(-c2cn[nH]c2)c1)N1C2CCC1CC(O)(c1ncccc1Cl)C2 (stereo not shown) [XX-03] | ≤ 0.1 µM | IC50 (human 11β-HSD2): > 10000 nM; IC50 (human 11β-HSD1; [1]): 0.012 µM
O=C(c1csc(-c2cn[nH]c2)c1)N1C2CCC1CC(O)(c1ccncc1Cl)C2 (stereo not shown) [XX-04] | ≤ 0.1 µM | –
COc1cccc(C2(O)CC3CCC(C2)N3C(=O)c2csc(-c3cn[nH]c3)c2)n1 (stereo not shown) [XX-05] | ≤ 0.1 µM | –
COc1cccnc1C1(O)CC2CCC(C1)N2C(=O)c1csc(-c2cn[nH]c2)c1 (stereo not shown) [XX-06] | ≤ 0.1 µM | –
Cc1cccnc1C1(O)CC2CCC(C1)N2C(=O)c1csc(-c2cn[nH]c2)c1 (stereo not shown) [XX-07] | ≤ 0.1 µM | IC50 (human 11β-HSD2): > 10000 nM; IC50 (human 11β-HSD1; [1]): 0.003 µM
CN(C)c1cccc(C2(O)CC3CCC(C2)N3C(=O)c2csc(-c3cn[nH]c3)c2)n1 (stereo not shown) [XX-08] | ≤ 0.1 µM | –
O=C(c1csc(-c2cn[nH]c2)c1)N1C2CCC1CC(O)(c1ncccc1C(F)(F)F)C2 (stereo not shown) [XX-09] | ≤ 0.1 µM | –
COC1(c2ccccn2)CC2CCC(C1)N2C(=O)c1csc(-c2cn[nH]c2)c1 (stereo not shown) [XX-10] | ≤ 0.1 µM | –
COC1(c2ncccc2C)CC2CCC(C1)N2C(=O)c1csc(-c2cn[nH]c2)c1 (stereo not shown) [XX-11] | ≤ 0.1 µM | –
CCOC1(c2ccccn2)CC2CCC(C1)N2C(=O)c1csc(-c2cn[nH]c2)c1 (stereo not shown) [XX-12] | ≤ 0.1 µM | –
O=C(c1csc(-c2cn[nH]c2)c1)N1C2CCC1CC(F)(c1ccccn1)C2 (stereo not shown) [XX-14] | ≤ 0.1 µM | –
Cc1cccnc1C1(C#N)CC2CCC(C1)N2C(=O)c1csc(-c2cn[nH]c2)c1 (stereo not shown) [XX-19] | ≤ 0.1 µM | –
O=C(c1csc(-c2cn[nH]c2)c1)N1C2CCC1CC(O)(c1ccncn1)C2 (stereo not shown) [XX-21] | – | IC50 (human 11β-HSD1; HEK293, potency groups, μM): 0.5 to 10 µM
O=C(c1csc(-c2cn[nH]c2)c1)N1C2CCC1CC(O)(c1cncnc1)C2 (stereo not shown) [XX-22] | – | IC50 (human 11β-HSD1; HEK293, potency groups, μM): 0.5 to 10 µM
O=C(c1csc(-c2cn[nH]c2)c1)N1C2CCC1CC(O)(c1ncncc1Cl)C2 (stereo not shown) [XX-23] | ≤ 0.1 µM | –
Cc1nccnc1C1(O)CC2CCC(C1)N2C(=O)c1csc(-c2cn[nH]c2)c1 (stereo not shown) [XX-25] | 0.1 to 0.5 µM | –
